{
  "source": "patent US8318504B2",
  "about": "“MRP2 efflux pathway prognostic method” (priority 2009, dated 2012)",
  "key": {"[1]": {"target": "T1, OATP2B1 (Homo sapiens, UniProt O94956)", "T1 construct": "expressed in transfected cells; host or cells: CHO cells (stably transfected; Treiber et al. 2007)", "T1 sequence (O94956 1-709)": "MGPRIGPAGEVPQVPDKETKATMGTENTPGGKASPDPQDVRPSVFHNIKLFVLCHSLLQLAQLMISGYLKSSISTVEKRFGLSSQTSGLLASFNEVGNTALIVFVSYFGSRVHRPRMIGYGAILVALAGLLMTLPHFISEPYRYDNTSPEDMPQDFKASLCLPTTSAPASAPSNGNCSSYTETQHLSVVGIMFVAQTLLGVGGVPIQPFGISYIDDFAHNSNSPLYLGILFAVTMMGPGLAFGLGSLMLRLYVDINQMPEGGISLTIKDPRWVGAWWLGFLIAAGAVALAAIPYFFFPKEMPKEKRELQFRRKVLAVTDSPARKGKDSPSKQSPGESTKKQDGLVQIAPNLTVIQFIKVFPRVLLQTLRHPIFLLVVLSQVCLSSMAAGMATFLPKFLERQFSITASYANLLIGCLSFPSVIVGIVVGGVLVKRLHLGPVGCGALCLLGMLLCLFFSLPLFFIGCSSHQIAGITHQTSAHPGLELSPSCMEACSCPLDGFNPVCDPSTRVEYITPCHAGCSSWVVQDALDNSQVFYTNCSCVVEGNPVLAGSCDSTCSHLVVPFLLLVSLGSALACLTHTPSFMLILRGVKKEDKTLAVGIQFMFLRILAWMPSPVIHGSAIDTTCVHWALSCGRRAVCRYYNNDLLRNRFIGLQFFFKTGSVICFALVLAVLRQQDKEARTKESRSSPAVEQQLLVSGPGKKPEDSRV", "assay": "Inhibition by CLF of estrone-3-sulfate transport in CHO cells expressing OATP2B1", "assay_type": "cell-based", "conditions": "0, 5 or 50 μmol/L CLF, 1 μmol/L estrone-3-sulfate", "procedure": "FIGS. 3A-3D relate to inhibition of transport activity of hepatocellular uptake transporters by CLF. CHO cells expressing NTCP, OATP1B1, OATP1B3 and OATP2B1 were incubated with 0, 5 or 50 μmol/L CLF and with the substrates, 2.5 μmol/L TC, 1 μmol/L estrone-3-sulfate, 10 μmol/L TC and 1 μmol/L estrone-3-sulfate, respectively. Data represent means±SD of triplicate determinations.\nFor all transport experiments, cells grown on 3 cm culture dishes were cultured for 24 hours in media supplemented with 5 mmol/L sodium-butyrate to increase expression levels of transfected transporters [Palermo D P et al., J Biotechnol 1991 June; 19(1):35-47]. • Transport experiments with uptake of radioactively labeled substrates: These experiments were performed as described by Huber R D et al. [Am J Physiol Cell Physiol 2007 February; 292(2):C795-C806]. • Transport experiments with uptake of CLF: Uptake was performed in the same buffers as for the radioactive substrates above. […] After complete solubilization, 1.5 ml was used to measure fluorescence in a Perkin-Elmer LS-5 luminescence-spectrometer set at λexe 486 nm (slit 10 nm) and λem 520 nm (slit 5 nm). Protein was determined with the bicinchoninic acid method using a kit from Interchim (Montfuçon, France). […]"}, "[2]": {"assay": "ATP-dependent transport of CLF into control wild type Sf21 membrane vesicles", "assay_type": "biochemical", "procedure": "(§1) The production of recombinant baculovirus was as described by de Waart et al. [Liver Int 2006 April; 26(3):362-368]. ABCC3 and ABCG2-recombinant baculovirus were a kind gift from Borst [Breedveld P. et al., Cancer Res 2004 Aug. 15; 64(16):5804-5811 and Borst P. et al., J Biol Chem 2001 Dec. 7; 276(49):46400-46407.]. ABCB11-recombinant baculovirus was a kind gift from Thompson [Thompson R J et al., Gastroenterology 2002 November; 123(5):1649-1658]. Sf21 cells grown at 27° C. were infected with ABCB11, ABCC2, ABCC3 and ABCG2-cDNA containing baculovirus. Cells were harvested at 2-4 days after infection. Membrane vesicle preparation was as described by de Waart et al. [Liver Int 2006 April; 26(3):362-368].\nTransport studies with membrane vesicles were performed using the rapid filtration technique as described by Heijn M et al. [Am J Physiol 1992 January; 262(1 Pt 1):C104-C110]. Radiolabel was measured with a scintillation counter. When CLF was used as a probe, filters were placed in a glass tube, 0.1% Triton-X-100 was added and the tubes vortexed. Samples were pipetted in 96-well plates (Kartell, Noviglio, Italy) and the amount CLF quantitated by measurement of fluorescence at λexe 485 nm and λcm 520 nm using a NovoStar (BMG-labtech, Offenburg, Germany)."}, "[3]": {"target": "T2, ABCC2 (Homo sapiens, UniProt Q92887)", "T2 construct": "made in house; host or cells: Sf21 insect cells, baculovirus; plasma membrane vesicles", "T2 sequence (Q92887 whole entry)": "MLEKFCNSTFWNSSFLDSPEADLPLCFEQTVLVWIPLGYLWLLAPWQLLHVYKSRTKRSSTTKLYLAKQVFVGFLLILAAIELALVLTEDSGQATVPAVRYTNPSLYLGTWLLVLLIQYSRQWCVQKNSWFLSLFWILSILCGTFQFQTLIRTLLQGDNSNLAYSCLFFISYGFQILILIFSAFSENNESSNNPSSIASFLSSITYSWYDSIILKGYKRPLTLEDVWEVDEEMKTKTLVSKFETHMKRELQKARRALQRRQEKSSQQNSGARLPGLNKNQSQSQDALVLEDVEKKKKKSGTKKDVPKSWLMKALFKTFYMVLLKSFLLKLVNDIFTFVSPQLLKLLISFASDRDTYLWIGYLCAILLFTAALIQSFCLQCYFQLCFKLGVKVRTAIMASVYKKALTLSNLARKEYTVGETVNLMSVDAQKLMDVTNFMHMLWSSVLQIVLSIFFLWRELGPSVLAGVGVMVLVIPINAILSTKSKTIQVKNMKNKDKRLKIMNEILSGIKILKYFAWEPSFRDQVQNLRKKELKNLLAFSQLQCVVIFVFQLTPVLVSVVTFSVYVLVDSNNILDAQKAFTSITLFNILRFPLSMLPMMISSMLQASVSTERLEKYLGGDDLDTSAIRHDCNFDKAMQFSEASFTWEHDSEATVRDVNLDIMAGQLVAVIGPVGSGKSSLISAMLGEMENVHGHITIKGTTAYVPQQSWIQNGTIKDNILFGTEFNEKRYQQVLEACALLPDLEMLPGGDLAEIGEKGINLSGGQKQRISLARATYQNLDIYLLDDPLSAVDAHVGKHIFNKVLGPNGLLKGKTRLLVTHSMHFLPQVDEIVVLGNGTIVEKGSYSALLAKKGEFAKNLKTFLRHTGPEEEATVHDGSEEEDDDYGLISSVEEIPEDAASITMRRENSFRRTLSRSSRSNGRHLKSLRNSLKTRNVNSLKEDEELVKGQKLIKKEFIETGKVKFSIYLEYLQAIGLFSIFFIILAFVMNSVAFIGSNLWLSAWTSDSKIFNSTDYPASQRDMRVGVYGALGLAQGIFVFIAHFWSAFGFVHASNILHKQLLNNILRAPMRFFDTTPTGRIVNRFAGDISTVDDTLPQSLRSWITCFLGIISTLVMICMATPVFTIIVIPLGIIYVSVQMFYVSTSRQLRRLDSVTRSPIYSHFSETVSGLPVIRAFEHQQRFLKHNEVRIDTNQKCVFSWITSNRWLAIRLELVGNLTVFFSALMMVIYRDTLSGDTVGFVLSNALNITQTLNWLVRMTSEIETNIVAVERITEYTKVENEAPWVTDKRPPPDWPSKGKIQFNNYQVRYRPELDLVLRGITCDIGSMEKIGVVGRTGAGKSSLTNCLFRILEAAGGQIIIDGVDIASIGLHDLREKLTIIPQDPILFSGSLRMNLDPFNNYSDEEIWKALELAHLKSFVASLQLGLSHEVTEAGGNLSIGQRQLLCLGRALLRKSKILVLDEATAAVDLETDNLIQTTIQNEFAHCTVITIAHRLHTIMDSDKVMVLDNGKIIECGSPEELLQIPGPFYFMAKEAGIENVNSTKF", "assay": "CLF inhibition of DNP-SG transport into ABCC2 containing Sf21 membrane vesicles", "assay_type": "biochemical", "conditions": "ATP-dependent transport, read-out: Half maximal inhibition of DNP-SG transport with CLF", "procedure": "FIGS. 5A and 5B show CLF inhibition of DNP-SG and TC transport into ABCC2 (A) and ABCB11 (B) protein containing Sf21 membrane vesicles respectively. The values are expressed as a percentage of maximal ATP-dependent transport. Significance was tested using two-sided Student's t-test: *P<0.05 for transport in the presence vs. absence of inhibitor.\nas §1, with “Membrane vesicle preparation was as described by de Waart et al. [Liver Int 2006 April; 26(3):362-368].” left out\nTransport studies with membrane vesicles were performed using the rapid filtration technique as described by Heijn M et al. [Am J Physiol 1992 January; 262(1 Pt 1):C104-C110]. Radiolabel was measured with a scintillation counter. […] Samples were pipetted in 96-well plates (Kartell, Noviglio, Italy) and the amount CLF quantitated by measurement of fluorescence at λexe 485 nm and λcm 520 nm using a NovoStar (BMG-labtech, Offenburg, Germany)."}},
  "data": [
    {"smiles": "CC(CCC(=O)NC(CCCCNC(=S)Nc1ccc(-c2c3ccc(=O)cc-3oc3cc(O)ccc23)c(C(=O)O)c1)C(=O)O)C1CCC2C3C(O)CC4CC(O)CCC4(C)C3CC(O)C12C", "note": "(stereo not drawn) [CLF, cholyl lysyl fluorescein]", "values": [
      {"measurement": "inhibition of transport of estrone-3-sulfate mediated by OATP2B1 by CLF", "setting": "[1]", "value": "much less efficiently"},
      {"measurement": "ATP-dependent uptake of CLF in control vesicles", "setting": "[2]", "value": "slight ATP-dependent uptake"},
      {"measurement": "IC50", "setting": "[3]", "value": "~1", "unit": "µM"}
    ]}
  ]
}
